Key:
[1] = Metabolic stability in rat liver microsomes; format: in vitro ADME
Description: (§1) Main solutions were prepared according to Table 9 below:
(§2) (II) Two Separate Experiments were Performed • a) With cofactor (NADPH): 25 μL of 10 mM NADPH was added to the culture broth. The final concentration of liver microsomes was 0.5 mg/mL, and the final concentration of NADPH was 1 mM. • b) Without cofactor (NADPH): 25 μL of 100 mM phosphate buffer was added. The final concentration of liver microsomes was 0.5 mg/mL. The mixture was preheated at 37° C. for 10 minutes. (III) 25 μL of […] control compound or test compound solution was added to start the reaction. […] The final concentrations of the test compound and control compound were both 1 μM. The culture broth was cultured in water at 37° C. (IV) Aliquots of 30 μL were collected from the reaction solution at 0.5, 5, 15, 30, and 60 minutes, respectively. 5 volumes of cold acetonitrile and IS (internal standard, containing 100 nM of alprazolam, 200 nM of caffeine, and 100 nM of tolylbutanamide) were added to stop the reaction. […] 100 μL of supernatant was taken and mixed with 100 μL of ultrapure water, equally divided and analyzed with LC-MS/MS.
(§3) All calculations were conducted using Microsoft Excel. The peak area was determined from the extracted ion chromatogram.
(§4) [formula] [formula] [formula] • wherein, QH is the hepatic blood flow (mL/min/kg) in Table 10, and fub is the fraction of drug unbound in plasma, and assumed as 1.

[2] = Plasma stability in human plasma; format: in vitro ADME
Description: The final concentration of organic solvents was 0.5%. The test was conducted in duplicate. • C.
Samples were analyzed with LC-MS/MS. All calculations were conducted using Microsoft Excel.

[3] = Metabolic stability in monkey liver microsomes; format: in vitro ADME
Description: as §1, §2, §3, §4

[4] = Plasma stability in rat plasma; details: rat, plasma
Description: 1 mM working solution of the test compound was prepared in DMSO. 1 mM working solution of propantheline was prepared in acetonitrile. 1 mM working solution of lovastatin (mevinolin) was prepared in DMSO. Propantheline was used as a positive control for human, monkey, dog, and mouse plasma stability tests. Lovastatin was a positive control for rat plasma stability test.
• A. 398 μL of plasma per well was added to the culture plate, and the plate was preheated at 37° C. for 15 minutes. • B. After preincubation, 2 μL of working solution (test solution or control solution) was added to the 398 μL plasma mentioned above, resulting in a final concentration of 5 μM. The final concentration of organic solvents was 0.5%. The test was conducted in duplicate. • C. The reaction sample was incubated at 37° C. • D. 50 μL was extracted from the reaction sample at 0, 15, 30, 60, and 120 minutes, respectively. […] 100 μL of supernatant was taken and transferred to a new plate. The supernatant was diluted with ultrapure water according to the LC-MS signal response and peak shape.
Samples were analyzed with LC-MS/MS. All calculations were conducted using Microsoft Excel. The peak area ratio was determined from the extracted ion chromatogram. • (1) The percentage of the remaining compound at each time point was calculated with the following formula: […]
wherein the slope value k was determined by linear regression of the natural logarithm of the remaining percentage of the parent drug vs. incubation time curve.

[5] = Metabolic stability in mouse liver microsomes; format: in vitro ADME
Description: as §1, §2, §3, §4

[6] = read-out: In vitro half-life t1/2
[7] = read-out: In vitro intrinsic clearance CLint

CC(C)NP(=O)(OCc1ccc([N+](=O)[O-])c(Oc2ccc(-c3ccc(F)cc3)c(F)c2)c1)OCC1OC(C2N=CC(N)=NC2=O)C(F)(F)C1O (stereo not shown) [Compound H11]
Hepatic Extraction Ratio (ER) [1]: 0.71 | Predicted Hepatic CLH [1]: 48.43 mL/min/kg | clearance and stability in liver microsomes (in words) [1]: medium clearances and certain stability | Remaining percentage (%) ([1]; NADPH added, 0.5 minutes, 1 μM): 100.00% | Remaining percentage (%) ([1]; NADPH added, 5 minutes): 85.67% | Remaining percentage (%) ([1]; NADPH added, 15 minutes): 56.17% | Remaining percentage (%) ([1]; NADPH added, 30 minutes): 29.55% | Remaining percentage (%) ([1]; NADPH added, 60 minutes): 13.20% | Remaining percentage (%) ([1]; NADPH not added, 0.5 minutes): 100.00% | Remaining percentage (%) ([1]; NADPH not added, 60 minutes): 103.20% | half-life at 1 μM [1, 6]: 20.1 min | microsomal CLint at 1 μM [1, 7]: 69 µL/min/mg | CLint scaled at 1 μM ([1]; read-out: Scale-up CLint): 168 mL/min/kg | t1/2 (min) [2]: ∞ | Remaining percentage (%) ([2]; 0 min, 5 μM, 37° C.): 100.00% | plasma stability (in words) ([2]; 37° C., at least 2 hours): stable and has no significant metabolism | Remaining percentage (%) ([2]; 15 min): 95.74% | Remaining percentage (%) ([2]; 30 min): 94.17% | Remaining percentage (%) ([2]; 60 min): 102.77% | Remaining percentage (%) ([2]; 120 min): 99.46% | Hepatic Extraction Ratio (ER) [3]: 0.88 | Predicted Hepatic CLH [3]: 38.81 mL/min/kg | clearance and stability in liver microsomes (in words) [3]: high clearance and poor stability | Remaining percentage (%) ([3]; NADPH added, 0.5 minutes, 1 μM): 100.00% | Remaining percentage (%) ([3]; NADPH added, 5 minutes): 46.01% | Remaining percentage (%) ([3]; NADPH added, 15 minutes): 13.27% | Remaining percentage (%) ([3]; NADPH added, 30 minutes): 0.59% | Remaining percentage (%) ([3]; NADPH added, 60 minutes): 0.09% | Remaining percentage (%) ([3]; NADPH not added, 0.5 minutes): 100.00% | Remaining percentage (%) ([3]; NADPH not added, 60 minutes): 105.87% | half-life at 1 μM ([3]; monkey, read-out: In vitro half-life t1/2): 5.06 min | microsomal CLint at 1 μM ([3]; monkey, read-out: In vitro intrinsic clearance CLint): 275 µL/min/mg | CLint scaled at 1 μM ([3]; monkey, read-out: Scale-up CLint): 330 mL/min/kg | t1/2 (min) [4]: ∞ | Remaining percentage (%) ([4]; 0 h, 5 μM): 100.00% | Remaining percentage (%) ([4]; 0.25 h, 5 µM): 108.59% | Remaining percentage (%) ([4]; 0.5 h, 5 µM): 105.39% | Remaining percentage (%) ([4]; 1 h, 5 µM): 100.74% | Remaining percentage (%) ([4]; 2 h, 5 µM): 109.53% | Hepatic Extraction Ratio (ER) [5]: 0.73 | Predicted Hepatic CLH [5]: 65.90 mL/min/kg | clearance and stability in liver microsomes (in words) [5]: medium clearances and certain stability | Remaining percentage (%) ([5]; NADPH added, 0.5 minutes, 1 μM): 100.00% | Remaining percentage (%) ([5]; NADPH added, 5 minutes): 85.55% | Remaining percentage (%) ([5]; NADPH added, 15 minutes): 55.03% | Remaining percentage (%) ([5]; NADPH added, 30 minutes): 36.05% | Remaining percentage (%) ([5]; NADPH added, 60 minutes): 16.85% | Remaining percentage (%) ([5]; NADPH not added, 0.5 minutes): 100.00% | Remaining percentage (%) ([5]; NADPH not added, 60 minutes): 93.32% | half-life at 1 μM [5, 6]: 23.3 min | microsomal CLint at 1 μM [5, 7]: 59.5 µL/min/mg | CLint scaled at 1 μM ([5]; read-out: Scale-up CLint): 246 mL/min/kg
